These molecules were tested on GM1 production in Jurkat cells (assay: cells). Details: not given.
Format: cell-based
`CC1(C)Cc2ccc(-c3cccc(OC(F)(F)F)c3)cc2C1NC(=O)O[C@@H]1CN2CCC1CC2` (stereo partly drawn) [Example 80, (S)-quinuclidin-3-yl (2,2-dimethyl-6-(3-(trifluoromethoxy)phenyl)-2,3-dihydro-1H-inden-1-yl)carbamate] gave an IC50 of 4.1 nM.

Same assay, conditions: Homo sapiens, Jurkat, 72 h
`CC1(C)Cc2ccc(-c3ccc(F)c(F)c3F)cc2C1NC(=O)O[C@@H]1CN2CCC1CC2` (stereo partly drawn) [Example 67, (S)-quinuclidin-3-yl (2,2-dimethyl-6-(2,3,4-trifluorophenyl)-2,3-dihydro-1H-inden-1-yl)carbamate] gave an IC50 of 144 nM.
Molecule `CCCCc1ccc(-c2ccc3c(c2)CC(C)(C)C3NC(=O)O[C@@H]2CN3CCC2CC3)cc1` (stereo partly drawn) [Example 164, (S)-quinuclidin-3-yl (5-(4-butylphenyl)-2,2-dimethyl-2,3-dihydro-1H-inden-1-yl)carbamate] has an IC50 of 6.5 nM.
With `CN(C)c1ccc(-c2ccc3c(c2)CC(C)(C)C3NC(=O)O[C@@H]2CN3CCC2CC3)cc1` (stereo partly drawn) [Example 132, (S)-quinuclidin-3-yl (5-(4-(dimethylamino)phenyl)-2,2-dimethyl-2,3-dihydro-1H-inden-1-yl)carbamate] the IC50 was 29.2 nM.
Molecule `CC1(C)Cc2cc(-c3ccc(F)cc3)ccc2C1NC(=O)O[C@@H]1CN2CCC1CC2` (stereo partly drawn) [Example 73, (S)-quinuclidin-3-yl (5-(4-fluorophenyl)-2,2-dimethyl-2,3-dihydro-1H-inden-1-yl)carbamate] has an IC50 of 26 nM.
Work on `CC1(C)Cc2cc(-c3cccc4cnccc34)ccc2C1NC(=O)O[C@@H]1CN2CCC1CC2` (stereo partly drawn) [Example 141, (S)-quinuclidin-3-yl (5-(isoquinolin-5-yl)-2,2-dimethyl-2,3-dihydro-1H-inden-1-yl)carbamate] yielded an IC50 of 39.9 nM.
For `CC1(C)Cc2cc(-c3cc(C(F)(F)F)ccc3Cl)ccc2C1NC(=O)O[C@@H]1CN2CCC1CC2` (stereo partly drawn) [Example 221, (S)-quinuclidin-3-yl (5-(2-chloro-5-(trifluoromethyl)phenyl)-2,2-dimethyl-2,3-dihydro-1H-inden-1-yl)carbamate], the IC50 was 16.9 nM.
`COc1ccnc(OC)c1-c1ccc2c(c1)CC(C)(C)C2NC(=O)O[C@@H]1CN2CCC1CC2` (stereo partly drawn) [Example 271, (S)-quinuclidin-3-yl (5-(2,4-dimethoxypyridin-3-yl)-2,2-dimethyl-2,3-dihydro-1H-inden-1-yl)carbamate] gave an IC50 of 30.6 nM.
For `CCCc1ccc(-c2cc3c(cc2F)C(NC(=O)O[C@@H]2CN4CCC2CC4)C(C)(C)C3)cc1` (stereo partly drawn) [Example 350, (S)-quinuclidin-3-yl (6-fluoro-2,2-dimethyl-5-(4-propylphenyl)-2,3-dihydro-1H-inden-1-yl)carbamate], the IC50 was 4.5 nM.
Work on `CC(C)Oc1ccc(Cl)cc1-c1ccc2c(c1)CC(C)(C)C2NC(=O)O[C@@H]1CN2CCC1CC2` (stereo partly drawn) [Example 217, (S)-quinuclidin-3-yl (5-(5-chloro-2-isopropoxyphenyl)-2,2-dimethyl-2,3-dihydro-1H-inden-1-yl)carbamate] yielded an IC50 of 72.1 nM.
For `CCc1ccccc1-c1ccc2c(c1)CC(C)(C)C2NC(=O)O[C@@H]1CN2CCC1CC2` (stereo partly drawn) [Example 175, (S)-quinuclidin-3-yl (5-(2-ethylphenyl)-2,2-dimethyl-2,3-dihydro-1H-inden-1-yl)carbamate], the IC50 was 42.8 nM.
In the case of `CCCOc1ccc(-c2cc3c(cc2OC)C(NC(=O)O[C@@H]2CN4CCC2CC4)C(C)(C)C3)cc1` (stereo partly drawn) [Example 319, (S)-quinuclidin-3-yl (6-methoxy-2,2-dimethyl-5-(4-propoxyphenyl)-2,3-dihydro-1H-inden-1-yl)carbamate], the IC50 is reported as 7.7 nM.
With `CCC1(CC)Cc2cc(-c3cccc(OC(C)C)c3)ccc2C1NC(=O)O[C@@H]1CN2CCC1CC2` (stereo partly drawn) [Example 291, (S)-quinuclidin-3-yl (2,2-diethyl-5-(3-isopropoxyphenyl)-2,3-dihydro-1H-inden-1-yl)carbamate] the IC50 was 13.5 nM.
`O=C(NC1CCc2cc(-c3ccc(F)c(F)c3F)ccc21)O[C@@H]1CN2CCC1CC2` (stereo partly drawn) [Example 20, (S)-quinuclidin-3-yl (5-(2,3,4-trifluorophenyl)-2,3-dihydro-1H-inden-1-yl)carbamate] was tested, and the IC50 was 126 nM.
`CC1(C)Cc2cc(-c3ccc4c(c3)CCCO4)ccc2C1NC(=O)O[C@@H]1CN2CCC1CC2` (stereo partly drawn) [Example 130, (S)-quinuclidin-3-yl (5-(chroman-6-yl)-2,2-dimethyl-2,3-dihydro-1H-inden-1-yl)carbamate] gave an IC50 of 10 nM.
`O=C(NC1CCc2cc(-c3cc(F)ccc3F)ccc21)O[C@@H]1CN2CCC1CC2` (stereo partly drawn) [Example 18, (S)-quinuclidin-3-yl (5-(2,5-difluorophenyl)-2,3-dihydro-1H-inden-1-yl)carbamate] was tested, and the IC50 was 31.6 nM.
Molecule `CC1(C)Cc2cc(-c3cc(C(F)(F)F)cc(C(F)(F)F)c3)ccc2C1NC(=O)O[C@@H]1CN2CCC1CC2` (stereo partly drawn) [Example 258, (S)-quinuclidin-3-yl (5-(3,5-bis(trifluoromethyl)phenyl)-2,2-dimethyl-2,3-dihydro-1H-inden-1-yl)carbamate] has an IC50 of 17.4 nM.
With `COc1cc(-c2ccc3c(c2)CC(C)(C)C3NC(=O)O[C@@H]2CN3CCC2CC3)ccc1F` (stereo partly drawn) [Example 226, (S)-quinuclidin-3-yl (5-(4-fluoro-3-methoxyphenyl)-2,2-dimethyl-2,3-dihydro-1H-inden-1-yl)carbamate] the IC50 was 57 nM.
`COc1ccc(-c2cc3c(cc2OC)C(NC(=O)O[C@@H]2CN4CCC2CC4)C(C)(C)C3)c(Cl)c1` (stereo partly drawn) [Example 346, (S)-quinuclidin-3-yl (5-(2-chloro-4-methoxyphenyl)-6-methoxy-2,2-dimethyl-2,3-dihydro-1H-inden-1-yl)carbamate] gave an IC50 of 38.3 nM.
For `COc1ccc(OC)c(-c2cc3c(cc2OC)C(NC(=O)O[C@@H]2CN4CCC2CC4)C(C)(C)C3)c1` (stereo partly drawn) [Example 344, (S)-quinuclidin-3-yl (5-(2,5-dimethoxyphenyl)-6-methoxy-2,2-dimethyl-2,3-dihydro-1H-inden-1-yl)carbamate], the IC50 was 51 nM.
In the case of `CCOc1ccc(-c2ccc3c(c2)CC(C)(C)C3NC(=O)O[C@@H]2CN3CCC2CC3)cc1F` (stereo partly drawn) [Example 133, (S)-quinuclidin-3-yl (5-(4-ethoxy-3-fluorophenyl)-2,2-dimethyl-2,3-dihydro-1H-inden-1-yl)carbamate], the IC50 is reported as 22.6 nM.
For `CCOc1ccc(-c2ccc3c(c2)CC(C)(C)C3NC(=O)O[C@@H]2CN3CCC2CC3)cc1C(F)(F)F` (stereo partly drawn) [Example 170, (S)-quinuclidin-3-yl (5-(4-ethoxy-3-(trifluoromethyl)phenyl)-2,2-dimethyl-2,3-dihydro-1H-inden-1-yl)carbamate], the IC50 was 13 nM.
`CC(C)Oc1ccccc1-c1ccc2c(c1)CC(C)(C)C2NC(=O)O[C@@H]1CN2CCC1CC2` (stereo partly drawn) [Example 145, (S)-quinuclidin-3-yl (5-(2-isopropoxyphenyl)-2,2-dimethyl-2,3-dihydro-1H-inden-1-yl)carbamate] was tested, and the IC50 was 23 nM.
`COCOc1ccc(-c2ccc3c(c2)CC2(CC2)C3NC(=O)O[C@@H]2CN3CCC2CC3)cc1` (stereo partly drawn) [Example 397, (S)-quinuclidin-3-yl (5′-(4-(methoxymethoxy)phenyl)-1′,3′-dihydrospiro[cyclopropane-1,2′-inden]-1′-yl)carbamate] showed an IC50 of 17.4 nM.
For `CC1(C)Cc2ccc(-c3cc(Cl)cc(Cl)c3)cc2C1NC(=O)O[C@@H]1CN2CCC1CC2` (stereo partly drawn) [Example 69, (S)-quinuclidin-3-yl (6-(3,5-dichlorophenyl)-2,2-dimethyl-2,3-dihydro-1H-inden-1-yl)carbamate], the IC50 was 400 nM.
In the case of `COc1ccc(-c2ccc3c(c2)CC(C)(C)C3NC(=O)O[C@@H]2CN3CCC2CC3)c(C)c1` (stereo partly drawn) [Example 180, (S)-quinuclidin-3-yl (5-(4-methoxy-2-methylphenyl)-2,2-dimethyl-2,3-dihydro-1H-inden-1-yl)carbamate], the IC50 is reported as 28.1 nM.
Work on `CCCOc1ccc(F)cc1-c1ccc2c(c1)CC(C)(C)C2NC(=O)O[C@@H]1CN2CCC1CC2` (stereo partly drawn) [Example 213, (S)-quinuclidin-3-yl (5-(5-fluoro-2-propoxyphenyl)-2,2-dimethyl-2,3-dihydro-1H-inden-1-yl)carbamate] yielded an IC50 of 39.8 nM.
Molecule `CC1(C)Cc2cc(-c3ccc(C(F)(F)F)cc3F)ccc2C1NC(=O)O[C@@H]1CN2CCC1CC2` (stereo partly drawn) [Example 229, (S)-quinuclidin-3-yl (5-(2-fluoro-4-(trifluoromethyl)phenyl)-2,2-dimethyl-2,3-dihydro-1H-inden-1-yl)carbamate] has an IC50 of 56.2 nM.
Molecule `CCOc1ccccc1-c1ccc2c(c1)CC(C)(C)C2NC(=O)O[C@@H]1CN2CCC1CC2` (stereo partly drawn) [Example 177, (S)-quinuclidin-3-yl (5-(2-ethoxyphenyl)-2,2-dimethyl-2,3-dihydro-1H-inden-1-yl)carbamate] has an IC50 of 22.9 nM.
With `Cc1cc(F)cc(-c2ccc3c(c2)CC(C)(C)C3NC(=O)O[C@@H]2CN3CCC2CC3)c1` (stereo partly drawn) [Example 219, (S)-quinuclidin-3-yl (5-(3-fluoro-5-methylphenyl)-2,2-dimethyl-2,3-dihydro-1H-inden-1-yl)carbamate] the IC50 was 30.4 nM.
Work on `CC1(C)Cc2cc(-c3ccc(OCC(F)(F)F)cc3)ccc2C1NC(=O)O[C@@H]1CN2CCC1CC2` (stereo partly drawn) [Example 116, (S)-quinuclidin-3-yl (2,2-dimethyl-5-(4-(2,2,2-trifluoroethoxy)phenyl)-2,3-dihydro-1H-inden-1-yl)carbamate] yielded an IC50 of 16.7 nM.
For `CC(C)(C)c1cccc(-c2ccc3c(c2)CC(C)(C)C3NC(=O)O[C@@H]2CN3CCC2CC3)c1` (stereo partly drawn) [Example 110, (S)-quinuclidin-3-yl (5-(3-(tert-butyl)phenyl)-2,2-dimethyl-2,3-dihydro-1H-inden-1-yl)carbamate], the IC50 was 15.1 nM.
Work on `CCOc1ccc(-c2cc3c(cc2OC)C(NC(=O)O[C@@H]2CN4CCC2CC4)C(C)(C)C3)cc1` (stereo partly drawn) [Example 318, (S)-quinuclidin-3-yl (5-(4-ethoxyphenyl)-6-methoxy-2,2-dimethyl-2,3-dihydro-1H-inden-1-yl)carbamate] yielded an IC50 of 20 nM.
Work on `CC1(C)Cc2cc(-c3ccc(Cl)c(Cl)c3)ccc2C1NC(=O)O[C@@H]1CN2CCC1CC2` (stereo partly drawn) [Example 92, (S)-quinuclidin-3-yl (5-(3,4-dichlorophenyl)-2,2-dimethyl-2,3-dihydro-1H-inden-1-yl)carbamate] yielded an IC50 of 43.9 nM.
In the case of `CCCOc1ccc(-c2ccc3c(c2)CC(C)(C)C3NC(=O)O[C@@H]2CN3CCC2CC3)c(OCCC)c1` (stereo partly drawn) [Example 203, (S)-quinuclidin-3-yl (5-(2,4-dipropoxyphenyl)-2,2-dimethyl-2,3-dihydro-1H-inden-1-yl)carbamate], the IC50 is reported as 8.2 nM.
